System: Uncinula necator (UNCINE), Qol-sensitive isolate
Assay: Activity against grape powdery mildew, protective glasshouse test, Qol-sensitive isolate
Type: in vivo
Conditions: % infected leaf area on grape plants, inoculated 2 days after treatment, assessed 19 days after inoculation
Experimental: Activity against grape powdery mildew caused by Uncinula necator (UNCINE)
The active compounds were formulated separately. Both compounds were applied on plants at the same concentrations of 100, 25 and 5 ppm. The spray broths were prepared as aqueous solutions based on a 6% EC of compound I according to the present invention and a 5% Aceton/water solution of compound I-213 from prior art (WO2013/092224).
The spray solutions were applied until runoff using an experimental glasshouse spray machine at a water volume equivalent to 1.000 L/ha. Treated plants were placed (together with untreated plants as a reference for infection success) in a glasshouse chamber at approx. 18° C. and 50% rH for two days. Two days after treatment, the plants were split into two groups. They were artificially inoculated using an aqueous conidia suspension of 0.1 to 0.5 E05 conidia/ml. One part was inoculated using a Qol-sensitive isolate, the other part using a Qol-resistant isolate carrying the target mutation G143A. After the artificial inoculation, the plants were placed in a glasshouse chamber at 21° C. and 55% rH for 19 days. The assessment of the infection was done 19 days after the inoculation and reported as % infected leaf area on two leaves which were fully covered by the spray application.

Cc1cccc(-n2nnn(C)c2=O)c1COc1ccn(-c2ccc(Cl)cc2)n1 [compound I, 1-[2-[[1-(4-chlorophenyl)pyrazol-3-yl]oxymethyl]-3-methyl-phenyl]-4-methyl-tetrazol-5-one]
Infection (%) Sens. Uncinula necator (5 ppm spray): 0.3%
Infection (%) Sens. Uncinula necator (25 ppm spray): 0.4%
Infection (%) Sens. Uncinula necator (100 ppm spray): 0.0%

From US11425909B2, “Use of tetrazolinones for combating resistant phytopathogenic fungi on fruits” (priority 2016, dated 2022)
